Holding throughout (experiment): NCI-60 cell line screen, 48 h
Assay [1] has as its system DLD-1.
Assay [2] has as its system DMS-273.
Assay [3] concerns KM-20L2.
In assay [4] the test system is LXFL 529.
In assay [5] the test system is RXF 631.
Assay [6] concerns SNB-78.
Assay [7] relates to XF498.
Assay [8] concerns DMS-114.
In assay [9] the test system is M19-MEL.

Each structure is given as a SMILES string.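 Briefly, cells in 96-well plates were exposed to five compound concentrations for 48 h, and endpoints were estimated by linear interpolation. GI50 is the concentration that inhibits growth by half.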 The source made the active and inactive calls. Cut-off read from the data, not from the text of the source: active = GI50 up to about 1.1 µM and inactive = higher.

Regarding `C=C1CC2CC[C@@]34C[C@@H]5O[C@@H]6C(O[C@H]7CC[C@H](CC(=O)OC8[C@@H](C)C9OC%10C[C@]%11(C[C@@H]%12O[C@@]%13(C[C@@H](C)[C@@H]%12O%11)C[C@H](C)[C@@H]%11OC%12CC(C(O)CO)OC%12C[C@@H]%11O%13)OC%10CC9O[C@H]8C[C@H]8O[C@@H](CC[C@@H]1O2)C[C@@H](C)C8=C)O[C@@H]7[C@@H]6O3)C5O4` (stereo not given in full), the GI50 is 0.00267 µM (active) in [1]; 0.000499 µM (active) in assay [2]; 0.000428 µM (active) in assay [3]; 0.000564 µM (active) in [4]; 0.000603 µM (active) in assay [5]; 0.00178 µM (active) in assay [6]. The GI50 in assay [7] is 0.000267 µM (active).

As for `CCOc1ccc2c(c1)[n+]([O-])c(-c1ccc(Br)cc1)c(N)[n+]2[O-]`, the GI50 in assay [1] was 99.5 µM (inactive); in assay [8], 30.4 µM (inactive); in assay [2] it was 39.4 µM (inactive); in assay [3] it was 47 µM (inactive); in assay [4] it was 52.2 µM (inactive); in assay [9], 59.2 µM (inactive). For the same molecule, the GI50 is 56.4 µM (inactive) in [5], > 100 µM (inactive) in assay [6] and 49.9 µM (inactive) in assay [7].

As for `C[C@]12CCC3[C@@H](CC[C@@H]4c5nonc5CC[C@]34C)C1CCC2=O` (stereo not given in full), the GI50 in [8] was 20.6 µM (inactive); in assay [2], 19.5 µM (inactive); in assay [3], 25.7 µM (inactive); in assay [4], 23.3 µM (inactive); in assay [9], 21.6 µM (inactive); in assay [5], 38.2 µM (inactive). For the same molecule, the GI50 was 23.2 µM (inactive) in [6] and 19.1 µM (inactive) in assay [7].

Turning to `CCOc1ccc(Nc2nc(C)c(C(=O)/C=C/c3ccc(Cl)cc3Cl)s2)cc1`, the GI50 in [1] was 26.5 µM (inactive); in assay [8], 24.9 µM (inactive); in [2] it was 21.4 µM (inactive); in assay [3] it was 25.4 µM (inactive); in assay [4], 18.8 µM (inactive); in assay [9], 26.1 µM (inactive). Further, the GI50 in assay [5] is 21.8 µM (inactive); in [6], 21.4 µM (inactive); in [7], 19.6 µM (inactive).

On to `CN(C)c1cccc(-c2cc(O)c3cc4c(cc3n2)OCO4)c1`, for which the GI50 in [1] was 0.206 µM (active); in [8], 0.236 µM (active); in [2], 0.203 µM (active); in [3], 0.216 µM (active); in assay [4] it was 0.13 µM (active); in [9] it was 0.401 µM (active). For the same molecule, the results for the GI50 in [5], in assay [6] and in assay [7] were 0.815 µM (active), 62.8 µM (inactive) and 0.144 µM (active), respectively.

Take `O=C(O)CN(c1ccc(F)cc1)S(=O)(=O)c1ccccc1`: the GI50 in assay [1], in [2], in [3], in assay [4], in assay [9] and in assay [5] was > 100 µM (inactive) throughout. In assay [7], the GI50 is > 100 µM (inactive).

As to `COC1=C(OC)C(=O)c2cc(C)c(=O)c(C)cc2C1=O`, the GI50 in [1] is 22.3 µM (inactive); in [8], 3.27 µM (inactive); in assay [2], 25.4 µM (inactive); in assay [3], 21.1 µM (inactive); in assay [4] it was 4.36 µM (inactive); in [9], 3.37 µM (inactive). In addition, the GI50 in assay [5] was 50.6 µM (inactive); in assay [6] it was 18.5 µM (inactive).

On to `O=C1c2ccccc2C(=O)c2c(O)c(O)cc(O)c21` [PURPURIN], for which the GI50 in [1] is 31.5 µM (inactive); in assay [2], 38.1 µM (inactive); in [4] it was 37.2 µM (inactive); in assay [9], 36.7 µM (inactive); in assay [5] it was 39.4 µM (inactive); in [6], 38.2 µM (inactive). In addition, the GI50 in [7] is 22.9 µM (inactive).

With `COc1ccc2c(CCNC(=O)/C=C/c3ccccc3)c(C(C)=O)[nH]c2c1[N+](=O)[O-]`, the GI50 was 13.6 µM (inactive) in [8]; 5.64 µM (inactive) in assay [2]; 19.1 µM (inactive) in assay [3]; 10 µM (inactive) in assay [4]; 13.2 µM (inactive) in assay [5]; 40.2 µM (inactive) in assay [6].

The values are drawn from ChEMBL document CHEMBL1201862, “PubChem BioAssay data set” (2004).
